The structures appear in SMILES notation.

This assay concerns NL-RLuc virus (HIV). Briefly: Inhibition of HIV replication (NL-RLuc luciferase reporter virus in MT-2 cells). It is filed as cell-based. The settings on record: Human immunodeficiency virus 1, MT2, 120 h. From the text:
Inhibition of HIV Replication
A recombinant NL-RLuc proviral clone was constructed in which a section of the nef gene from NL4-3 was replaced with the Renilla Luciferase gene. This virus is fully infectious and can undergo multiple cycles of replication in cell culture. In addition, the luciferous reporter provides a simple and easy method for quantitating the extent of virus growth and consequently, the antiviral activity of test compounds. The plasmid pNLRLuc contains the proviral NL-Rluc DNA cloned into pUC18 at the PvuII site. The NL-RLuc virus was prepared by transfection of 293T cells with the plasmid pNLRLuc. Transfections were performed using the LipofectAMINE PLUS kit from Invitrogen (Carlsbad, Calif.) according to the manufacturer and the virus generated was titered in MT-2 cells. For susceptibility analyses, the titrated virus was used to infect MT-2 cells in the presence of compound, and after 5 days of incubation, cells were processed and quantitated for virus growth by the amount of expressed luciferase. Assay media was RPMI 1640 supplemented with 10% heat inactivated fetal bovine serum (FBS), 100 units/ml penicillin G/100 units/ml streptomycin, 10 mM HEPES buffer pH 7.55 and 2 mM L-glutamine. The results from at least 2 experiments were used to calculate the EC50 values. Luciferase was quantitated using the Dual Luciferase kit from Promega (Madison, Wis.). Susceptibility of viruses to compounds was determined by incubation in the presence of serial dilutions of the compound. The 50% effective concentration (EC50) was calculated by using the exponential form of the median effect equation where (Fa)=1/[1+(ED50/drug conc.)^m] (Johnson V A, Byington R T. Infectivity Assay. In Techniques in HIV Research. ed. Aldovini A, Walker B D. 71-76. New York: Stockton Press. 1990).
Background: In a reporter assay the amount or activity of a reporter protein is the signal.

As a reminder, the EC50 is the concentration giving half of the maximal effect. Read a high EC50 as a less potent agent. Compound `Cc1nc(C)c([C@H](OC(C)(C)C)C(=O)O)c(N2CCC(C)(C)CC2)c1-c1ccc2ccncc2c1` [Example 1, (S)-2-(tert-Butoxy)-2-(4-(4,4-dimethylpiperidin-1-yl)-5-(isoquinolin-7-yl)-2,6-dimethylpyridin-3-yl)acetic acid] showed a concentration giving a half-maximal response (EC50) of 47 nM.

`Cc1nc(C)c([C@H](OC(C)(C)C)C(=O)O)c(N2CCC(C)(C)CC2)c1-c1cnc2ccccc2c1` [Example 2, (S)-2-(tert-butoxy)-2-(4-(4,4-dimethylpiperidin-1-yl)-2,6-dimethyl-5-(quinolin-3-yl)pyridin-3-yl)acetic acid]: the half-maximal effective concentration (EC50) came out at 73 nM.

Compound `Cc1nc(C)c([C@H](OC(C)(C)C)C(=O)O)c(N2CCC(C)(C)CC2)c1-c1ccc2c(c1)OCCO2` [Example 3, (S)-2-(tert-butoxy)-2-(5-(2,3-dihydrobenzo[b][1,4]dioxin-6-yl)-4-(4,4-dimethylpiperidin-1-yl)-2,6-dimethylpyridin-3-yl)acetic acid] registered an EC50 of 101 nM.

`Cc1nc(C)c([C@H](OC(C)(C)C)C(=O)O)c(N2CCC(C)(C)CC2)c1-c1ccc2cc[nH]c2c1` [Example 4, (S)-2-(tert-butoxy)-2-(4-(4,4-dimethylpiperidin-1-yl)-5-(1H-indol-6-yl)-2,6-dimethylpyridin-3-yl)acetic acid]: the midpoint of the response, the EC50, lay at 233 nM.

Compound `Cc1nc(C)c([C@H](OC(C)(C)C)C(=O)O)c(N2CCC(C)(C)CC2)c1-c1ccc2c(c1)CCC2` [Example 5, (S)-2-(tert-butoxy)-2-(5-(2,3-dihydro-1H-inden-5-yl)-4-(4,4-dimethylpiperidin-1-yl)-2,6-dimethylpyridin-3-yl)acetic acid] yielded an EC50 of 56 nM.

`Cc1nc(C)c([C@H](OC(C)(C)C)C(=O)O)c(N2CCC(C)(C)CC2)c1-c1ccc2sc(C(=O)O)cc2c1` [Example 6, (S)-5-(5-(tert-butoxy(carboxy)methyl)-4-(4,4-dimethylpiperidin-1-yl)-2,6-dimethylpyridin-3-yl)benzo[b]thiophene-2-carboxylic acid] gave an EC50 of 66000 nM.

In the case of `Cc1nc(C)c([C@H](OC(C)(C)C)C(=O)O)c(N2CCC(C)(C)CC2)c1-c1coc2ccccc12` [Example 7, (2S)-2-(5-(benzofuran-3-yl)-4-(4,4-dimethylpiperidin-1-yl)-2,6-dimethylpyridin-3-yl)-2-(tert-butoxy)acetic acid], it took 288 nM to reach a half-maximal effect (EC50). Against the preceding compound, the EC50 is about 230-fold lower.

`Cc1nc(C)c([C@H](OC(C)(C)C)C(=O)O)c(N2CCC(C)(C)CC2)c1-c1ccc2[nH]c(=O)[nH]c2c1` [Example 8, (S)-2-(tert-butoxy)-2-(4-(4,4-dimethylpiperidin-1-yl)-2,6-dimethyl-5-(2-oxo-2,3-dihydro-1H-benzo[d]imidazol-5-yl)pyridin-3-yl)acetic acid] displayed an EC50 of 7060 nM.

On to `Cc1nc(C)c([C@H](OC(C)(C)C)C(=O)O)c(N2CCC(C)(C)CC2)c1-c1ccc2c(c1)OCCN2C` [Example 9, (S)-2-(tert-butoxy)-2-(4-(4,4-dimethylpiperidin-1-yl)-2,6-dimethyl-5-(4-methyl-3,4-dihydro-2H-benzo[b][1,4]oxazin-7-yl)pyridin-3-yl)acetic acid], for which the EC50 came to 87 nM.

The compound `Cc1nc(C)c([C@H](OC(C)(C)C)C(=O)O)c(N2CCC(C)(C)CC2)c1-c1ccc2c(c1)CCNC2=O` [Example 10, (S)-2-(tert-butoxy)-2-(4-(4,4-dimethylpiperidin-1-yl)-2,6-dimethyl-5-(1-oxo-1,2,3,4-tetrahydroisoquinolin-6-yl)pyridin-3-yl)acetic acid] had an EC50 of 307 nM.

On to `Cc1nc(C)c([C@H](OC(C)(C)C)C(=O)O)c(N2CCC(C)(C)CC2)c1-c1ccc2c(c1)CNC2=O` [Example 11, (S)-2-(tert-butoxy)-2-(4-(4,4-dimethylpiperidin-1-yl)-2,6-dimethyl-5-(1-oxoisoindolin-5-yl)pyridin-3-yl)acetic acid], for which the EC50 came out at 1680 nM.

As for `Cc1nc(C)c([C@H](OC(C)(C)C)C(=O)O)c(N2CCC(C)(C)CC2)c1-c1ccc2[nH]c(=O)cc(O)c2c1` [Example 12, (S)-2-(tert-butoxy)-2-(4-(4,4-dimethylpiperidin-1-yl)-5-(4-hydroxy-2-oxo-1,2-dihydroquinolin-6-yl)-2,6-dimethylpyridin-3-yl)acetic acid], the EC50 came to 4960 nM. This EC50 is about 3-fold higher than that of the compound before.

Consider `Cc1nc(C)c([C@H](OC(C)(C)C)C(=O)O)c(N2CCC(C)(C)CC2)c1-c1ccc2c(c1)CN(Cc1ccc(F)cc1)C2=O` [Example 13, (S)-2-(tert-butoxy)-2-(4-(4,4-dimethylpiperidin-1-yl)-5-(2-(4-fluorobenzyl)-1-oxoisoindolin-5-yl)-2,6-dimethylpyridin-3-yl)acetic acid], for which the EC50 amounted to 12 nM. Compared with the last compound, the EC50 is about 410-fold lower.

In turn, `Cc1nc(C)c([C@H](OC(C)(C)C)C(=O)O)c(N2CCC(C)(C)CC2)c1-c1ccc2c(c1)CCN(Cc1ccc(F)cc1)C2=O` [Example 14, (S)-2-(tert-butoxy)-2-(4-(4,4-dimethylpiperidin-1-yl)-5-(2-(4-fluorobenzyl)-1-oxo-1,2,3,4-tetrahydroisoquinolin-6-yl)-2,6-dimethylpyridin-3-yl)acetic acid] came in with an EC50 of 6 nM.

Take `Cc1nc(C)c([C@H](OC(C)(C)C)C(=O)O)c(N2CCC(C)(C)CC2)c1-c1ccc2c(c1)CCN(Cc1nccs1)C2=O` [Example 15, (S)-2-(tert-butoxy)-2-(4-(4,4-dimethylpiperidin-1-yl)-2,6-dimethyl-5-(1-oxo-2-(thiazol-2-ylmethyl)-1,2,3,4-tetrahydroisoquinolin-6-yl)pyridin-3-yl)acetic acid]: the EC50 was found to be 14 nM.

Consider `Cc1ncsc1CN1CCc2cc(-c3c(C)nc(C)c([C@H](OC(C)(C)C)C(=O)O)c3N3CCC(C)(C)CC3)ccc2C1=O` [Example 16, (S)-2-(tert-butoxy)-2-(4-(4,4-dimethylpiperidin-1-yl)-2,6-dimethyl-5-(2-((4-methylthiazol-5-yl)methyl)-1-oxo-1,2,3,4-tetrahydroisoquinolin-6-yl)pyridin-3-yl)acetic acid], for which the EC50 came out at 6 nM.

In turn, `Cc1nc(C)c([C@H](OC(C)(C)C)C(=O)O)c(N2CCC(C)(C)CC2)c1-c1ccc2c(c1)CCN(Cc1cscn1)C2=O` [Example 17, (S)-2-(tert-butoxy)-2-(4-(4,4-dimethylpiperidin-1-yl)-2,6-dimethyl-5-(1-oxo-2-(thiazol-4-ylmethyl)-1,2,3,4-tetrahydroisoquinolin-6-yl)pyridin-3-yl)acetic acid] came in with an EC50 of 24 nM.

As to `Cc1nc(C)c([C@H](OC(C)(C)C)C(=O)O)c(N2CCC(C)(C)CC2)c1-c1ccc2[nH]c(=O)cc(OCc3ccc(F)cc3)c2c1` [Example 18, (S)-2-(tert-butoxy)-2-(4-(4,4-dimethylpiperidin-1-yl)-5-(4-((4-fluorobenzyl)oxy)-2-oxo-1,2-dihydroquinolin-6-yl)-2,6-dimethylpyridin-3-yl)acetic acid], it took 504 nM to reach a half-maximal effect (EC50).

Regarding `Cc1nc(C)c([C@H](OC(C)(C)C)C(=O)O)c(N2CCC(C)(C)CC2)c1-c1ccc2c(c1)C(=O)C(Cc1ccc(F)cc1)(Cc1ccc(F)cc1)C(=O)N2` [Example 19, (S)-2-(5-(3,3-bis(4-fluorobenzyl)-2,4-dioxo-1,2,3,4-tetrahydroquinolin-6-yl)-4-(4,4-dimethylpiperidin-1-yl)-2,6-dimethylpyridin-3-yl)-2-(tert-butoxy)acetic acid], the midpoint of the response, the EC50, lay at 240 nM.

Values taken from US10407410B2, “Pyridin-3-yl acetic acid derivatives as inhibitors of human immunodeficiency virus replication” (priority 2016, dated 2019).
